Experimental data: ChEMBL document CHEMBL5360635 (J Med Chem, 2023)
Blank lines part the entries; values can stand above or below the compound they belong to. Active and inactive are the calls of the source. No cut-off for these calls is given here.

Experiments:
[1] = Inhibition of N-terminal his6-tagged FIH (unknown origin) expressed in Escherichia coli using HIF-alpha CAD (788 to 822 residues) expressed in Escherichia coli by SPE-MS analysis; design: species or system Homo sapiens
[2] = molecular target: Bifunctional peptidase and arginyl-hydroxylase JMJD5 (Homo sapiens, UniProt Q8N371); assay: Inhibition of N-terminal his6-tagged-thioredoxin-tagged human recombinant JMJD5 expressed in Escherichia coli using RPS6 as substrate by SPE-MS analysis
Bifunctional peptidase and arginyl-hydroxylase JMJD5, sequence (Q8N371 whole entry): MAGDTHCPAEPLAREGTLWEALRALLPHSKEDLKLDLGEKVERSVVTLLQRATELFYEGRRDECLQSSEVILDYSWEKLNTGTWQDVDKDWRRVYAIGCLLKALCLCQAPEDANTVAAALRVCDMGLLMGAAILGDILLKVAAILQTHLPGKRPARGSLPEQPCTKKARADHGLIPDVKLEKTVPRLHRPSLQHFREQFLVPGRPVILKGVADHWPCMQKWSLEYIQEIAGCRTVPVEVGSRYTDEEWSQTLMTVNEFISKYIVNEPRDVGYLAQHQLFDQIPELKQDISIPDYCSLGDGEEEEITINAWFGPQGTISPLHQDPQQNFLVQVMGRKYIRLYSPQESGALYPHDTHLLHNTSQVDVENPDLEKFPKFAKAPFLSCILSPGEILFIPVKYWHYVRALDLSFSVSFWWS

[3] = molecular target: T1, Lysine-specific demethylase 4E (Homo sapiens, UniProt B2RXH2); assay: Inhibition of KDM4E (unknown origin) by SPE-MS analysis
T1 sequence (B2RXH2 whole entry): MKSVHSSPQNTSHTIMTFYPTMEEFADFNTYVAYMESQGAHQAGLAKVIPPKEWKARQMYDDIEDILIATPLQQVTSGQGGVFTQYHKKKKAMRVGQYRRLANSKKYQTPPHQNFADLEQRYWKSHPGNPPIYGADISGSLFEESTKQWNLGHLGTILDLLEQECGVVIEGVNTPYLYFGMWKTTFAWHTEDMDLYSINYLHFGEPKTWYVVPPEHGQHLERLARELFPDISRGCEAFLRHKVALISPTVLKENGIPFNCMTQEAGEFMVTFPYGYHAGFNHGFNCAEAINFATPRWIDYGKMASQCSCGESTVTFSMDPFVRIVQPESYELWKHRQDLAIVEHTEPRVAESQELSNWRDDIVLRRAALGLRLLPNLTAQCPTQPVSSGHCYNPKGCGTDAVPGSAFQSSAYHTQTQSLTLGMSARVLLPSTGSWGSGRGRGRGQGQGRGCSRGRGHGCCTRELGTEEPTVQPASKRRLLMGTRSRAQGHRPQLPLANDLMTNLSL

A549 [4] = assay: Induction of replication stress in human A549 cells increase in 53BP1 bodies at 1 uM by DAPI staining based fluorescent microscopic analysis; format: functional, cell-based
A549 [5] = assay: Induction of replication stress in human A549 cells increase in micronuclei at 1 uM by DAPI staining based fluorescent microscopic analysis; format: functional, cell-based
A549 [6] = assay: Induction of cell cycle arrest in human A549 cells assessed as accumulation at G1 phase incubated for 24 hrs by PI staining based flow cytometry; format: functional
A549 [7] = assay: Induction of cell cycle arrest in human A549 cells assessed as accumulation at sub G1 phase incubated for 24 hrs by PI staining based flow cytometry; format: functional
[8] = molecular target: T1, Lysine-specific demethylase 4E; assay: Inhibition of KDM4E (unknown origin) by FDH-coupled spectrophotometric turnover assay

SMILES: O=C(O)c1ccnc(C(=O)O)c1C(F)(F)F
IC50 [3]: Not Active

SMILES: COC(=O)c1cc(C(=O)OC)c(NCc2ccccc2C2CC2)cn1
Activity (A549 [4]): Active
Activity (A549 [5]): Active
Activity (A549 [6]): Active
Activity (A549 [7]): Active

SMILES: COC(=O)c1cc(C(=O)OC)c(NCc2ccccc2OC)cn1
Activity (A549 [4]): Active
Activity (A549 [5]): Active
Activity (A549 [6]): Active
Activity (A549 [7]): Active

SMILES: O=C(O)c1cc(C(=O)O)c(C(F)(F)F)cn1
IC50 [3]: Not Active

SMILES: O=C(O)c1ccnc(C(=O)O)c1Nc1ccccc1[N+](=O)[O-]
IC50 [8]: 56 µM

The remaining lines, values ahead:

IC50 [1]: > 50 µM
SMILES: O=C(O)c1cc(C(=O)O)c(NCc2ccccc2C2CC2)cn1

IC50 [2]: 0.7 µM
SMILES: COc1ccccc1CNc1cnc(C(=O)O)cc1C(=O)O
